Results as given in US20080255143A1, “Inhibitors of Akt Activity” (SMITHKLINE BEECHAM CORPORATION, priority 2003, published 2008).
Counter-ions that a name gives are not always drawn.

Columns and labels:
Format in all cases: biochemical
Details in all cases: catalytic domain, 10 nM activated enzyme, 4 uM ATP, 8 uM peptide, 40 minutes at room temperature
[1] = target: T1, delta-PH AKT2 (Homo sapiens, UniProt P31751); assay: AKT enzyme assay (substrate phosphorylation, SPA), AKT2
T1 construct: His-tagged AKT2 (aa 138-481) and His-tagged AKT3 (aa 135-479) were isolated; His; made in house; host or cells: insect cells (only by 'in a similar fashion' to AKT1)
Protocol: (§1) His-tagged AKT2 (aa 138-481) and His-tagged AKT3 (aa 135-479) were isolated and purified in a similar fashion.
(§2) Compounds of the present invention were tested for AKT 1, 2, and 3 protein serine kinase inhibitory activity in substrate phosphorylation assays. This assay examines the ability of small molecule organic compounds to inhibit the serine phosphorylation of a peptide substrate. The substrate phosphorylation assays use the catalytic domains of AKT 1, 2, or 3. […] Substrate phosphorylation was detected by the following procedure:
(§3) Assays were performed in 384 well U-bottom white plates. […] The reaction was stopped by the addition of 50 ul SPA bead mix (Dulbecco's PBS without Mg^2+ and Ca^2+, 0.1% Triton X-100, 5 mM EDTA, 50 uM ATP, 2.5 mg/ml Streptavidin-coated SPA beads.) The plate was sealed, the beads were allowed to settle overnight, and then the plate was counted in a Packard Topcount Microplate Scintillation Counter (Packard Instrument Co., Meriden, Conn.).
(§4) The data for dose responses were plotted as % Control calculated with the data reduction formula 100*(U1-C2)/(C1-C2) versus concentration of compound where U is the unknown value, C1 is the average control value obtained for DMSO, and C2 is the average control value obtained for 0.1M EDTA. […]

[2] = target: T2, delta-PH AKT3 (Homo sapiens, UniProt Q9Y243); assay: AKT enzyme assay (substrate phosphorylation, SPA), AKT3
T2 construct: His-tagged AKT2 (aa 138-481) and His-tagged AKT3 (aa 135-479) were isolated; His; made in house; host or cells: insect cells (only by 'in a similar fashion' to AKT1)
Protocol: as §1, §2, §3, §4

[3] = target: T3, delta-PH AKT1 (Homo sapiens, UniProt P31749); assay: AKT enzyme assay (substrate phosphorylation, SPA), AKT1
T3 construct: Insect cells expressing His-tagged AKT1 (aa 136-480) were lysed; His; made in house; host or cells: insect cells
Protocol: Insect cells expressing His-tagged AKT1 (aa 136-480) were lysed in 25 mM HEPES, 100 mM NaCl, 20 mM imidazole; pH 7.5 using a polytron (5 mLs lysis buffer/g cells). Cell debris was removed by centrifuging at 28,000×g for 30 minutes. The supernatant was filtered through a […] filter then loaded onto a nickel-chelating column pre-equilibrated with lysis buffer. The column was washed with 5 column volumes (CV) of lysis buffer then with 5 CV of 20% buffer B, where buffer B is 25 mM HEPES, 100 mM NaCl, 300 mM imidazole; pH 7.5. His-tagged AKT1 (aa 136-480) was eluted with a 20-100% linear gradient of buffer B over 10 CV. His-tagged AKT1 (136-480) eluting fractions were pooled and diluted 3-fold with buffer C, where buffer C is 25 mM HEPES, pH 7.5. […]
Compounds of the present invention were tested for AKT 1, 2, and 3 protein serine kinase inhibitory activity in substrate phosphorylation assays. […] Substrate phosphorylation was detected by the following procedure:
as §3, with “Conn.). […]” for “Conn.).”

T2 sequence (Q9Y243 135-479): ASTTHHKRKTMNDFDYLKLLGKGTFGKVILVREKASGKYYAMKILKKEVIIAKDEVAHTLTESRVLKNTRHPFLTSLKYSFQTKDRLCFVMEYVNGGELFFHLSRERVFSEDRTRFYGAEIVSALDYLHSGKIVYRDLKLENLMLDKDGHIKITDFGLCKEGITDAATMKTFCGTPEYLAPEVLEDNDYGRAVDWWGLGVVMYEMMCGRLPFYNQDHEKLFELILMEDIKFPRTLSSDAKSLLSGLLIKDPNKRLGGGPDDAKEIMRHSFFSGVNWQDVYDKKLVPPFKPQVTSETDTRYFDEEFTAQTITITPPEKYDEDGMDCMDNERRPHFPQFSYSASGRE
T3 sequence (P31749 136-480): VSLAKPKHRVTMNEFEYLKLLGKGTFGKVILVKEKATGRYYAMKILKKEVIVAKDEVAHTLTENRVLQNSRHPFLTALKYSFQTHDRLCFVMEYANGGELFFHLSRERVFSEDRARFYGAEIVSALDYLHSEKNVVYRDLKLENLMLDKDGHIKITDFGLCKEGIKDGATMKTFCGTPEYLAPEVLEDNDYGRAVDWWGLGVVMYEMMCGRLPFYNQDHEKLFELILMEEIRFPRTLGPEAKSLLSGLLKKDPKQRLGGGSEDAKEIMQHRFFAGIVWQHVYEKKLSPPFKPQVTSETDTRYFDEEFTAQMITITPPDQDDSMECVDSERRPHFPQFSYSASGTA
T1 sequence (P31751 138-481): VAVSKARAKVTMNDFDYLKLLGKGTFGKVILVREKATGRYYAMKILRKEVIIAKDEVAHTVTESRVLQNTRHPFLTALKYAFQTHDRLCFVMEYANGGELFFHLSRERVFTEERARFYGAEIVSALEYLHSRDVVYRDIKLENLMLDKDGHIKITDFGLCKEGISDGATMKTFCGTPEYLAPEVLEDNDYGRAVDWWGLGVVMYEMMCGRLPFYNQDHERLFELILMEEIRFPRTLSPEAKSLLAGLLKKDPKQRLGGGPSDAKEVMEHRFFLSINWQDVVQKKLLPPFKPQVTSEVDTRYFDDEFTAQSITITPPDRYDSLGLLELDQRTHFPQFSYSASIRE

IC50 [1]: 0.038 µM | IC50 [2]: 0.032 µM | IC50 [3]: 0.069 µM
Compound: CCn1c(-c2nonc2N)nc2c(-c3cccc(Cl)c3)ncc(NCCCNC[C@H](O)CO)c21 [Example 236, (S)-3-[3-[2-(4-amino-furazan-3-yl)-4-(3-chloro-phenyl)-1-ethyl-1H-imidazo[4,5-c]pyridin-7-ylamino]-propylamino]-propane-1,2-diol trifluoroacetate]
